In US10316057B2, “Tandem facial amphiphiles” (WISCONSIN ALUMNI RESEARCH FOUNDATION, priority 2011, dated 2019):

Columns and labels:
LHI-RC superassembly = system: T1, LHI-RC superassembly; assay: Stabilization assay for R. capsulatus superassembly (A875/A680); design: species or system Rhodobacter capsulatus; details: room temperature, 20 days, CMC+0.04 wt %, relative to DDM
T1 construct: The LHI-RC superassembly was extracted from native membranes with 1.0 wt % DDM; made in house; host or cells: Rhodobacter capsulatus U43[pUHTM86Bgl]; (lacks LHII), photosynthetic membranes
Text: The promising results with bR stabilization led to investigating a more challenging system, the photosynthetic superassembly formed by the light harvesting I (LHI) and reaction center (RC) complexes from Rhodobacter capsulatus (Laible et al., Biochemistry 2003, 42, 1718-1730). This superassembly contains 30-40 protein molecules (five different components), and maintenance of native quaternary structure can be assessed via spectrophotometry. The LHI-RC superassembly was extracted from native membranes with 1.0 wt % DDM and purified with DDM at its CMC (0.009 wt %). […]
Resin-retaining spin columns (e.g., emptied His SpinTrap™ columns; GE Healthcare) were inserted into a 2 mL microcentrifuge tube and the samples were then loaded onto the column. […] The protein was collected by eluting with two 0.25 mL elution buffer aliquots (this buffer was identical to binding buffer with the addition to 1 M of imidazole; the pH of each solution was checked and readjusted to pH=7.8). […]
UV-Vis spectra of these solutions were measured in regular intervals. FIG. 9 illustrates the time course of stability of R. capsulatus superassembly, evaluated at room temperature. […] Absorbance ratio (A875/A680) was followed for the stability evaluation of the membrane protein. […] FIG. 10 illustrates the absorbance spectrum of R. capsulatus superassembly in TFA-1 (a,c) and DDM (b,d) at room temperature (˜23° C.). […]

Bacteriorhodopsin (bR) = target: T2, Bacteriorhodopsin (bR) (Halobacterium salinarum, UniProt P02945); assay: Stabilization assay for bacteriorhodopsin (absorbance at 554 nm); details: room temperature, 20 days; 0.2 wt % OTG+0.8 wt % TFA or 1.0 wt % OTG only
T2 construct: extract bR from the native purple membrane; endogenous in cells
T2 sequence (P02945 14-261 limits assumed): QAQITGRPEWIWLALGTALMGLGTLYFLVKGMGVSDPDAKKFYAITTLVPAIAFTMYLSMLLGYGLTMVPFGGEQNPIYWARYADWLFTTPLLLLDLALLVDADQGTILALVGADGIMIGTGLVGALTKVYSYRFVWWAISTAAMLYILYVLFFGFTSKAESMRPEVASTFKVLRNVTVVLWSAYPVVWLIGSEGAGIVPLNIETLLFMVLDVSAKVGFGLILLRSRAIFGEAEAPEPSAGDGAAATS
Protocol: Bacteriorhodopsin (bR) has been widely employed for assessment of new amphiphiles because this membrane protein is readily available, and stability can be assessed via spectrophotometry (absorbance at 554 nm). Following standard protocols (Bazzacco et al., Biomacromolecules 2009, 10, 3317-3326), 2.0 wt % octyl-β-D-thioglucoside (OTG) was used to extract bR from the native purple membrane. After removal of insoluble debris via ultracentrifugation, the bR solution was diluted with amphiphile-containing solutions to generate samples containing 0.2 wt % OTG+0.8 wt % TFA. A control sample had OTG added to give a total of 1.0 wt %. […] Parallel studies were carried out at different amphiphile concentrations as described in Example 3 below. DDM is not efficient at bR extraction from the native membrane but extracted bR can be stable in the presence of DDM (Milder et al., Biochemistry 1991, 30, 1751-1761).
The general procedure was followed according to the reported protocol of Bazzacco et al. (Biomacromolecules 10, 3317-3326 (2009)). Frozen aliquots of purple membranes containing bR at 184 μM were thawed and solubilized by incubation with octylthioglucoside (OTG) for 24 hr at 4° C. in a dark room. For the solubilization, OTG (CMC=0.28 wt %) was used at 2.0 wt % in 10 mM sodium phosphate (pH 6.9). […] BR stability in each TFA solutions was monitored by measuring absorbance at 554 nm for 20 days.

[1] = stated in the bR protocol; cited from earlier work

| SMILES | stability of LHI-RC superassembly (LHI-RC superassembly) | bR stability over time (Bacteriorhodopsin (bR)) | CMC [1] [wt %] |
| --- | --- | --- | --- |
| CCCCCCCCCCCC[N+](C)(C)[O-] [lauryldimethylamine oxide] | rapid degradation of the superassembly |  |  |
| CCCCCCCCO[C@@H]1O[C@H](CO)[C@@H](O)[C@H](O)[C@H]1O [octyl-glucoside] | rapid degradation of the superassembly |  |  |
| CCCCCCCCS[C@@H]1O[C@H](CO)[C@@H](O)[C@H](O)[C@H]1O [OTG, octyl-β-D-thioglucoside, reference compound] |  | almost completely denatured by day 10 | 0.28 |
